Assays:
E. coli VIM‐1 (T2544) [1] = assay: Intrinsic antimicrobial activity (MIC, CLSI microdilution), E. coli VIM-1; type: cell-based; details: Escherichia coli
Method: (§1) Minimal inhibitory concentrations (MICs) of imipenem monohydrate (Sigma‐Aldrich)±compound 3 a, 3 o, or 3 s against transformed E. coli strains producing NDM‐1 or VIM‐1 were determined according to microdilution method established by Clinical and Laboratory Standards Institute (CLSI).^20 The checkerboard assay was performed to test for synergy in vitro. The microtiter‐plates were set up with serial doubling dilutions of compound 3 a, 3 o, or 3 s (2‐128 mg/L) and imipenem (0.125‐128 mg/L).

VIM‐1 = target: T1, VIM‐1 (Pseudomonas aeruginosa, UniProt A0A0F7KYQ8); assay: Fluorescence-based enzyme activity assay (Fluorocillin), VIM-1; type: biochemical; details: for Effect of added zinc ions on inhibitory activity (VIM-1): 10 μM compound, additional 100 μM ZnCl2 in assay buffer
T1 construct: made in house
Method: (§2) In order to investigate the structure‐activity relationships of the dithiol library, we measured the inhibitory activity of 3 a–x in a fluorescence‐based enzyme activity assay (Table 1). Two relevant β‐lactamase isoforms, NDM‐1 and VIM‐1 were selected for in vitro assays. The fluorogenic substrate fluorocillin[15] was prepared according to literature and its conversion was monitored as described previously.[6] In general, a linear relationship between the potency of 3 a–x towards both enzymes could be observed, however, inhibitory potency towards VIM‐1 was almost tenfold higher (Figure 3). A very clear preference for the propane‐1,3‐dithiol over ethane‐1,2‐dithiol compounds could be observed from matched molecular pairs.
(§3) Activity assays for MBLs were performed at room temperature in black polystyrol 96well plates (Corning, Corning, NY, USA) using dicefalotinodifluorofluorescein (Fluorocillin) as a substrate. Proteins were diluted in assay buffer (HEPES 50 mM, pH 7.5 containing 0.01 %Triton X‐100), with final protein concentrations of NDM‐1: 3 nM, or VIM‐1: 4 nM. Samples were supplemented with an equimolar amount of ZnCl2. An amount of 1 μL of compounds 3 a–3 x at different concentrations was incubated with 89 μL of enzyme in assay buffer. After an incubation period of 30 min at room temperature, 10 μL of Fluorocillin substrate was added to yield the final assay volume of 100 μL. Final concentration of DMSO was 1 %. The fluorescence emitted by the fluorescent product difluorofluorescein was monitored every 45 s for 30 cycles using a Tecan fluorescent plate reader (Infinite 200; excitation at 495 nm and emission at 525 nm) and was compared with a standard curve. The rate of the enzymatic reaction was obtained by dividing the quantity of the fluorescent product (RFU) by time (min). Negative controls were measured in the absence of enzyme, whereas the positive controls were measured in the presence of enzyme and in the absence of inhibitors. The inhibitory effect of each substance was measured in triplicate in three independent experiments. IC50 values were calculated using data obtained from measurements with at least eight different inhibitor concentrations, applying a sigmoidal dose–response (variable slope with four parameters) equation using GraphPad Prism 5 (GraphPad Software, La Jolla, CA, USA) software. In order to investigate the inhibitory activity of 3 a, 3 o, or 3 s in the presence of a high Zn^2+ concentration, assay buffer containing an additional 100 μM ZnCl2 was used. The assay was performed as described above with NDM‐1 or VIM‐1 and 10 μM of 3 a, 3 o, or 3 s.

E. coli VIM‐1 (T2544) [2] = assay: Checkerboard synergy assay with imipenem, E. coli VIM-1; type: cell-based; details: for Imipenem MIC: E. coli VIM-1 (T2544); for Reduction of the MIC of imipenem: VIM-1 producing bacteria, maximal reduction
Method: (§4) To investigate this, the MIC of imipenem or combined with various concentrations of compound 3a, 3o, or 3 s was determined against E. coli transformants producing NDM‐1 or VIM‐1 (Table 3 and 4).
as §1

VIM‐2 = target: T2, VIM‐2 (Escherichia coli, UniProt Q5U7L7); assay: Kd determination using isothermal titration calorimetry; type: binding; details: ITC, 250 μM compound into 50 μM VIM-2, 25 °C
T2 construct: made in house
Method: The next step was the investigation of the binding thermodynamics of 3 a, 3 o, and 3 s. For these experiments we used a closely related enzyme VIM‐2 which is an isoform of VIM‐1 and can be recombinantly expressed in very high concentrations, suitable tor isothermal titration calorimetry (ITC) experiments (Figure 6).
VIM‐2 expression and purification was published elsewhere.[19] Before the measurement the VIM‐2 protein was dialyzed against 500 times the volume of buffer (50 mM Tris, 500 mM NaCl, 5 % (v/v) glycerol with a pH=8) using a dialysis membrane with a 3.5 kDa MWCO. For the measurements the compounds 3 a, 3 o, or 3 s, respectively, were diluted using the dialyses buffer to a final concentration of 250 μM containing a final DMSO concentration of 1 %. The VIM‐2 protein was diluted to a final concentration of 50 μM, supplemented with 1 % DMSO using the dialysis buffer and pure DMSO. For the control measurements dialysis buffer was supplemented with pure DMSO to a final concentration of 1 %. The measurements were performed using an “Affinity ITC” (TA‐Instruments) in reversed mode, with a stir rate of 75 rpm and a temperature of 25 °C. The VIM‐2 was placed in the cell and the respective compound in the syringe. For blank measurements either the protein or compound dilution were exchanged with buffer containing 1 % DMSO. For the measurements of 3 a and 3 s one time 0.5 μl was injected followed by 50 injections of 2 μl with a spacing of 240 s. 3 o was measured with one injection of 0.5 μl followed by 35 injections of 2 μl with a spacing of 240 s. The data were analyzed using the “NanoAnalyze Data Analysis” software (version 3.10.0; TA‐Instruments).

NDM‐1 = target: T3, NDM‐1 (Klebsiella pneumoniae, UniProt C7C422); assay: Fluorescence-based enzyme activity assay (Fluorocillin), NDM-1; type: biochemical; details: for Effect of added zinc ions on inhibitory activity (NDM-1): 10 μM compound, additional 100 μM ZnCl2 in assay buffer
T3 construct: made in house
Method: as §2, §3

E. coli NDM‐1 (T2359) [3] = assay: Intrinsic antimicrobial activity (MIC, CLSI microdilution), E. coli NDM-1; type: cell-based; details: for MIC: Escherichia coli; for Intrinsic antimicrobial activity: compound alone, E. coli transformants producing NDM-1 or VIM-1 (Table 2)
Method: as §1

E. coli NDM‐1 (T2359) [4] = assay: Checkerboard synergy assay with imipenem, E. coli NDM-1; type: cell-based; details: for Imipenem MIC: E. coli NDM-1 (T2359); for Reduction of the MIC of imipenem: NDM-1 producing bacteria, maximal reduction
Method: as §4, §1

T3 sequence (C7C422 29-270, looked up, species assumed): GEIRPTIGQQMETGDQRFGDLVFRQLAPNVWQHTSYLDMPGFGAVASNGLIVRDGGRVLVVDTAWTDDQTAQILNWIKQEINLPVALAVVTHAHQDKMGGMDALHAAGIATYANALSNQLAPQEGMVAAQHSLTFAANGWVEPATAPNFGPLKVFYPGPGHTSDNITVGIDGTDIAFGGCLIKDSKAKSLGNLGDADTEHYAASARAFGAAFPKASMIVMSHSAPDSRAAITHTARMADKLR

Structure (SMILES) | MIC (E. coli VIM‐1 (T2544) [1]) [µg/mL] | IC50 (VIM‐1) [nM] | Effect of added zinc ions on inhibitory activity (VIM-1) (VIM‐1) | Imipenem MIC (E. coli VIM‐1 (T2544) [2]; +2 μg/ml compound) [µg/mL] | Imipenem MIC (E. coli VIM‐1 (T2544) [2]; +4 μg/ml compound) [µg/mL] | Imipenem MIC (E. coli VIM‐1 (T2544) [2]; +8 μg/ml compound) [µg/mL] | Imipenem MIC (E. coli VIM‐1 (T2544) [2]; +16 μg/ml compound) [µg/mL] | Imipenem MIC (E. coli VIM‐1 (T2544) [2]; +32 μg/ml compound) [µg/mL] | Imipenem MIC (E. coli VIM‐1 (T2544) [2]; +64 μg/ml compound) [µg/mL] | Imipenem MIC (E. coli VIM‐1 (T2544) [2]; +128 μg/ml compound) [µg/mL] | Kd (VIM‐2; inset of Figure 6) [nM] | IC50 (NDM‐1) [nM] | Effect of added zinc ions on inhibitory activity (NDM-1) (NDM‐1) | MIC (E. coli NDM‐1 (T2359) [3]) [µg/mL] | Intrinsic antimicrobial activity (E. coli NDM‐1 (T2359) [3]) | Imipenem MIC (E. coli NDM‐1 (T2359) [4]; +2 μg/ml compound) [µg/mL] | Imipenem MIC (E. coli NDM‐1 (T2359) [4]; +4 μg/ml compound) [µg/mL] | Imipenem MIC (E. coli NDM‐1 (T2359) [4]; +8 μg/ml compound) [µg/mL] | Imipenem MIC (E. coli NDM‐1 (T2359) [4]; +16 μg/ml compound) [µg/mL] | Imipenem MIC (E. coli NDM‐1 (T2359) [4]; +32 μg/ml compound) [µg/mL] | further results
O=C1C(SCCCS)CCN1c1nccs1 (stereo not shown) [3 s, 3‐((3‐Mercaptopropyl)thio)‐1‐(thiazol‐2‐yl)pyrrolidin‐2‐one] | > 512 | 40 ± 10 | does not impair the inhibitory activity | 32 | 16 | 16 | 16 | 8 | 4 | 2 | 166 | 390 ± 50 | does not impair the inhibitory activity | > 512 | no intrinsic antimicrobial activity | 128 | 128 | 64 | 64 | 64 | Reduction of the MIC of imipenem (E. coli VIM‐1 (T2544) [2]): ≤ 32 fold; ΔH (VIM‐2): -6.45 kcal/mol; Imipenem MIC (E. coli NDM‐1 (T2359) [4]; +64 μg/ml compound): 32 µg/mL; Imipenem MIC (E. coli NDM‐1 (T2359) [4]; +128 μg/ml compound): 16 µg/mL; Reduction of the MIC of imipenem (E. coli NDM‐1 (T2359) [4]): up to 8 fold
O=C1CCCC1SCCCS (stereo not shown) [3 a, 2‐((3‐Mercaptopropyl)thio)cyclopentanone] | > 512 | 170 ± 40 | does not impair the inhibitory activity | 32 | 32 | 16 | 16 | 16 | 16 | 8 | 878 | 480 ± 70 | does not impair the inhibitory activity | > 512 | no intrinsic antimicrobial activity | 128 | 128 | 128 | 64 | 64 | Kd (VIM‐2): 880 nM; Imipenem MIC (E. coli NDM‐1 (T2359) [4]; +64 μg/ml compound): 64 µg/mL; Imipenem MIC (E. coli NDM‐1 (T2359) [4]; +128 μg/ml compound): 32 µg/mL
O=C1C(SCCCS)CCN1c1ccccc1 (stereo not shown) [3 o, 3‐((3‐Mercaptopropyl)thio)‐1‐phenylpyrrolidin‐2‐one] | > 512 | 20 | does not impair the inhibitory activity | 16 | 16 | 16 | 16 | 8 | 2 | 1 | 534 | 300 ± 40 | does not impair the inhibitory activity | > 512 | no intrinsic antimicrobial activity | 128 | 128 | 128 | 128 | 32 | Reduction of the MIC of imipenem (E. coli VIM‐1 (T2544) [2]): ≤ 32 fold; ΔH (VIM‐2): -11.7 kcal/mol; Imipenem MIC (E. coli NDM‐1 (T2359) [4]; +64 μg/ml compound): 32 µg/mL; Imipenem MIC (E. coli NDM‐1 (T2359) [4]; +128 μg/ml compound): 16 µg/mL; Reduction of the MIC of imipenem (E. coli NDM‐1 (T2359) [4]): up to 8 fold

— PMC9290507, “Rh^II‐Catalyzed De‐symmetrization of Ethane‐1,2‐dithiol and Propane‐1,3‐dithiol Yields Metallo‐β‐lactamase Inhibitors” (Chemmedchem, 2021)
